ChEMBL document CHEMBL4665709, “Rational Avoidance of Protease Cleavage Sites and Symmetrical End-Tagging Significantly Enhances the Stability and Therapeutic Potential of Antimicrobial Peptides” (J Med Chem, 2020)
Converted amounts (≈) assume the structure as drawn. Where a SMILES comes first, the peptide text is derived from it.

Key:
Staphylococcus aureus [1] = assay: Antibacterial activity against Staphylococcus aureus 11011 after 18 to 24 hrs by CLSI-based broth microdilution method; type: functional; settings: time hrs 18-24
Escherichia coli [2] = assay: Antibacterial activity against Escherichia coli ATCC 25922 after 18 to 24 hrs by CLSI-based broth microdilution method; type: functional; settings: time hrs 18-24
[3] = Therapeutic index, ratio of MHC for human RBC to geometric mean of peptide MIC for methicillin-resistant Staphylococcus aureus 43300; type: toxicity; settings: human red blood cells (RBC), read-out: TI
Salmonella typhimurium [4] = assay: Antibacterial activity against Salmonella typhimurium 14028 after 18 to 24 hrs by CLSI-based broth microdilution method; type: functional, Salmonella enterica subsp. enterica serovar Typhimurium; settings: Salmonella enterica, time hrs 18-24
Streptococcus agalactiae = assay: Antibacterial activity against Streptococcus agalactiae H92 after 18 to 24 hrs by CLSI-based broth microdilution method; type: functional; settings: time hrs 18-24
Salmonella enterica = assay: Antibacterial activity against Salmonella choleraesuis 503 after 18 to 24 hrs by CLSI-based broth microdilution method; type: functional; settings: time hrs 18-24
[5] = Therapeutic index, ratio of MHC for human RBC to geometric mean of peptide MIC for Salmonella typhimurium 14028; type: toxicity; settings: human red blood cells (RBC), read-out: TI
[6] = Cytotoxicity against mouse RAW264.7 cells assessed as cell viability at 128 uM by MTT assay relative to control; type: cell-based; settings: read-out: Activity
[7] = Therapeutic index, ratio of MHC for human RBC to geometric mean of peptide MIC for Escherichia coli UB1005; type: toxicity; settings: human red blood cells (RBC), read-out: TI
[8] = Antibacterial activity against Salmonella pullorum 7913 after 18 to 24 hrs by CLSI-based broth microdilution method; type: functional, Salmonella enterica subsp. enterica serovar Pullorum; settings: Salmonella enterica, time hrs 18-24
[9] = Therapeutic index, ratio of MHC for human RBC to geometric mean of peptide MIC for Salmonella typhimurium 7731; type: toxicity; settings: human red blood cells (RBC), read-out: TI
[10] = Therapeutic index, ratio of MHC for human RBC to geometric mean of peptide MIC for Staphylococcus epidermidis ATCC 12228; type: toxicity; settings: human red blood cells (RBC), read-out: TI
Enterococcus faecalis = assay: Antibacterial activity against Enterococcus faecalis ATCC 29212 after 18 to 24 hrs by CLSI-based broth microdilution method; type: functional; settings: time hrs 18-24
[11] = Therapeutic index, ratio of MHC for human RBC to geometric mean of peptide MIC for Escherichia coli ATCC 25922; type: toxicity; settings: human red blood cells (RBC), read-out: TI
[12] = Therapeutic index, ratio of MHC for human RBC to geometric mean of peptide MIC for Staphylococcus aureus ATCC 29213; type: toxicity; settings: human red blood cells (RBC), read-out: TI
Salmonella typhimurium [13] = assay: Antibacterial activity against Salmonella typhimurium 7731 after 18 to 24 hrs by CLSI-based broth microdilution method; type: functional, Salmonella enterica subsp. enterica serovar Typhimurium; settings: Salmonella enterica, time hrs 18-24
Staphylococcus aureus [14] = assay: Antibacterial activity against Staphylococcus aureus ATCC 29213 after 18 to 24 hrs by CLSI-based broth microdilution method; type: functional; settings: time hrs 18-24
Escherichia coli [15] = assay: Antibacterial activity against Escherichia coli UB1005 after 18 to 24 hrs by CLSI-based broth microdilution method; type: functional; settings: time hrs 18-24
[16] = tested on: Staphylococcus epidermidis; assay: Antibacterial activity against Staphylococcus epidermidis ATCC 12228 after 18 to 24 hrs by CLSI-based broth microdilution method; type: functional; settings: time hrs 18-24
[17] = Therapeutic index, ratio of MHC for human RBC to geometric mean of peptide MIC for Enterococcus faecalis ATCC 29212; type: toxicity; settings: human red blood cells (RBC), read-out: TI
[18] = Therapeutic index, ratio of MHC for human RBC to geometric mean of peptide MIC for Staphylococcus aureus 11011; type: toxicity; settings: human red blood cells (RBC), read-out: TI
[19] = Therapeutic index, ratio of MHC for human RBC to geometric mean of peptide MIC for Salmonella pullorum 7913; type: toxicity; settings: human red blood cells (RBC), read-out: TI
[20] = Therapeutic index, ratio of MHC for human RBC to geometric mean of peptide MIC for Streptococcus agalactiae H92; type: toxicity; settings: human red blood cells (RBC), read-out: TI
Staphylococcus aureus [21] = assay: Antibacterial activity against methicillin-resistant Staphylococcus aureus 43300 after 18 to 24 hrs by CLSI-based broth microdilution method; type: functional; settings: time hrs 18-24
[22] = Cytotoxicity against HEK-293T cells assessed as cell viability at 128 uM by MTT assay relative to control; type: cell-based; settings: human, read-out: Activity
Erythrocyte = assay: Hemolytic activity in human RBC assessed as hemolysis; type: ADME, cell-based
[23] = Hemolytic activity in human RBC assessed as hemolysis at 1 to 128 uM relative to control; type: ADME, cell-based, Erythrocyte; settings: human red blood cells (RBC), dose 1-128 µM, read-out: Activity
[24] = Therapeutic index, ratio of MHC for human RBC to geometric mean of peptide MIC for Salmonella choleraesuis 503; type: toxicity; settings: human red blood cells (RBC), read-out: TI

## CC(C)[C@H](N)C(=O)N[C@@H](CS)C(=O)N[C@@H](CCCNC(=N)N)C(=O)N[C@@H](CCCCN)C(=O)N1CCC[C@H]1C(=O)N[C@H](C(=O)N[C@H](C(=O)N[C@@H](CS)C(=O)N[C@@H](CCCNC(=N)N)C(=O)N[C@@H](CCCCN)C(=O)N1CCC[C@H]1C(=O)N[C@H](C(=O)N[C@H](C(=O)N[C@@H](CS)C(=O)N[C@@H](CCCNC(=N)N)C(=O)N[C@@H](CCCCN)C(=O)N1CCC[C@H]1C(=O)N[C@H](C(=O)N[C@H](C(=O)N[C@@H](CS)C(=O)N[C@@H](CCCNC(=N)N)C(=O)N[C@@H](CCCCN)C(=O)N1CCC[C@H]1C(=O)N[C@H](C(=O)N[C@H](C(=O)N[C@@H](CS)C(=O)N[C@@H](CCCNC(=N)N)C(=O)N[C@@H](CCCCN)C(=O)N1CCC[C@H]1C(=O)N[C@H](C(N)=O)C(C)C)C(C)C)C(C)C)C(C)C)C(C)C)C(C)C)C(C)C)C(C)C)C(C)C (H-VCRKPVVCRKPVVCRKPVVCRKPVVCRKPV-NH2)
Staphylococcus aureus [1]
  MIC: > 64 µM
Escherichia coli [2]
  MIC: 4 µM (≈ 13.7 µg/mL)
[3]
  selectivity ratio: 2
Salmonella typhimurium [4]
  MIC: 4 µM (≈ 13.7 µg/mL)
Streptococcus agalactiae
  MIC: > 64 µM
Salmonella enterica
  MIC: > 64 µM
[5]
  selectivity ratio: 16
[6]
  viability at 128 µM: > 90%
[7]
  selectivity ratio: 16
[8]
  MIC: 16 µM (≈ 54.9 µg/mL)
[9]
  selectivity ratio: 16
[10]
  selectivity ratio: 2
Enterococcus faecalis
  MIC: > 64 µM
[11]
  selectivity ratio: 16
[12]
  selectivity ratio: 2
Salmonella typhimurium [13]
  MIC: 4 µM (≈ 13.7 µg/mL)
Staphylococcus aureus [14]
  MIC: > 64 µM
Escherichia coli [15]
  MIC: 4 µM (≈ 13.7 µg/mL)
[16]
  MIC: > 64 µM
[17]
  selectivity ratio: 2
[18]
  selectivity ratio: 2
[19]
  selectivity ratio: 16
[20]
  selectivity ratio: 2
Staphylococcus aureus [21]
  MIC: > 64 µM
[22]
  viability at 128 µM: > 90%
Erythrocyte
  MHC: > 128 µM
[23]
  hemolysis at up to 128 µM: < 5%
[24]
  selectivity ratio: 16

## CC(C)[C@H](N)C(=O)N[C@@H](CS)C(=O)N[C@@H](CCCNC(=N)N)C(=O)N[C@@H](CCCCN)C(=O)N1CCC[C@H]1C(=O)N[C@H](C(=O)N[C@H](C(=O)N[C@@H](CS)C(=O)N[C@@H](CCCNC(=N)N)C(=O)N[C@@H](CCCCN)C(=O)N1CCC[C@H]1C(=O)N[C@H](C(=O)N[C@H](C(=O)N[C@@H](CS)C(=O)N[C@@H](CCCNC(=N)N)C(=O)N[C@@H](CCCCN)C(=O)N1CCC[C@H]1C(=O)N[C@H](C(N)=O)C(C)C)C(C)C)C(C)C)C(C)C)C(C)C (H-VCRKPVVCRKPVVCRKPV-NH2)
Staphylococcus aureus [1]
  MIC: > 64 µM
Escherichia coli [2]
  MIC: 8 µM (≈ 16.5 µg/mL)
[3]
  selectivity ratio: 2
Salmonella typhimurium [4]
  MIC: 8 µM (≈ 16.5 µg/mL)
Streptococcus agalactiae
  MIC: > 64 µM
Salmonella enterica
  MIC: > 64 µM
[5]
  selectivity ratio: 6.35
[6]
  viability at 128 µM: > 90%
[7]
  selectivity ratio: 6.35
[8]
  MIC: > 64 µM
[9]
  selectivity ratio: 6.35
[10]
  selectivity ratio: 2
Enterococcus faecalis
  MIC: > 64 µM
[11]
  selectivity ratio: 6.35
[12]
  selectivity ratio: 2
Salmonella typhimurium [13]
  MIC: 16 µM (≈ 33.1 µg/mL)
Staphylococcus aureus [14]
  MIC: > 64 µM
Escherichia coli [15]
  MIC: 16 µM (≈ 33.1 µg/mL)
[16]
  MIC: > 64 µM
[17]
  selectivity ratio: 2
[18]
  selectivity ratio: 2
[19]
  selectivity ratio: 6.35
[20]
  selectivity ratio: 2
Staphylococcus aureus [21]
  MIC: > 64 µM
[22]
  viability at 128 µM: > 90%
Erythrocyte
  MHC: > 128 µM
[23]
  hemolysis at up to 128 µM: < 5%
[24]
  selectivity ratio: 6.35

## CC(C)[C@H](N)C(=O)N[C@@H](CS)C(=O)N[C@@H](CCCNC(=N)N)C(=O)N[C@@H](CCCCN)C(=O)N1CCC[C@H]1C(=O)N[C@H](C(=O)N[C@H](C(=O)N[C@@H](CS)C(=O)N[C@@H](CCCNC(=N)N)C(=O)N[C@@H](CCCCN)C(=O)N1CCC[C@H]1C(=O)N[C@H](C(=O)N[C@H](C(=O)N[C@@H](CS)C(=O)N[C@@H](CCCNC(=N)N)C(=O)N[C@@H](CCCCN)C(=O)N1CCC[C@H]1C(=O)N[C@H](C(=O)N[C@H](C(=O)N[C@@H](CS)C(=O)N[C@@H](CCCNC(=N)N)C(=O)N[C@@H](CCCCN)C(=O)N1CCC[C@H]1C(=O)N[C@H](C(N)=O)C(C)C)C(C)C)C(C)C)C(C)C)C(C)C)C(C)C)C(C)C (H-VCRKPVVCRKPVVCRKPVVCRKPV-NH2)
Staphylococcus aureus [1]
  MIC: > 64 µM
Escherichia coli [2]
  MIC: 8 µM (≈ 22 µg/mL)
[3]
  selectivity ratio: 2
Salmonella typhimurium [4]
  MIC: 8 µM (≈ 22 µg/mL)
Streptococcus agalactiae
  MIC: > 64 µM
Salmonella enterica
  MIC: > 64 µM
[5]
  selectivity ratio: 8
[6]
  viability at 128 µM: > 90%
[7]
  selectivity ratio: 8
[8]
  MIC: 64 µM (≈ 176 µg/mL)
[9]
  selectivity ratio: 8
[10]
  selectivity ratio: 2
Enterococcus faecalis
  MIC: > 64 µM
[11]
  selectivity ratio: 8
[12]
  selectivity ratio: 2
Salmonella typhimurium [13]
  MIC: 8 µM (≈ 22 µg/mL)
Staphylococcus aureus [14]
  MIC: > 64 µM
Escherichia coli [15]
  MIC: 8 µM (≈ 22 µg/mL)
[16]
  MIC: > 64 µM
[17]
  selectivity ratio: 2
[18]
  selectivity ratio: 2
[19]
  selectivity ratio: 8
[20]
  selectivity ratio: 2
Staphylococcus aureus [21]
  MIC: > 64 µM
[22]
  viability at 128 µM: > 90%
Erythrocyte
  MHC: > 128 µM
[23]
  hemolysis at up to 128 µM: < 5%
[24]
  selectivity ratio: 8

## CC[C@H](C)[C@H](N)C(=O)N[C@@H](CS)C(=O)N[C@@H](CCCNC(=N)N)C(=O)N[C@@H](CCCCN)C(=O)N1CCC[C@H]1C(=O)N[C@H](C(=O)N[C@H](C(=O)N[C@@H](CS)C(=O)N[C@@H](CCCNC(=N)N)C(=O)N[C@@H](CCCCN)C(=O)N1CCC[C@H]1C(=O)N[C@H](C(=O)N[C@H](C(=O)N[C@@H](CS)C(=O)N[C@@H](CCCNC(=N)N)C(=O)N[C@@H](CCCCN)C(=O)N1CCC[C@H]1C(=O)N[C@H](C(N)=O)[C@@H](C)CC)[C@@H](C)CC)[C@@H](C)CC)[C@@H](C)CC)[C@@H](C)CC (H-ICRKPIICRKPIICRKPI-NH2)
Staphylococcus aureus [1]
  MIC: > 64 µM
Escherichia coli [2]
  MIC: 8 µM (≈ 17.2 µg/mL)
[3]
  selectivity ratio: 2
Salmonella typhimurium [4]
  MIC: 8 µM (≈ 17.2 µg/mL)
Streptococcus agalactiae
  MIC: > 64 µM
Salmonella enterica
  MIC: 16 µM (≈ 34.4 µg/mL)
[5]
  selectivity ratio: 11.3
[6]
  viability at 128 µM: > 90%
[7]
  selectivity ratio: 11.3
[8]
  MIC: 64 µM (≈ 138 µg/mL)
[9]
  selectivity ratio: 11.3
[10]
  selectivity ratio: 2
Enterococcus faecalis
  MIC: > 64 µM
[11]
  selectivity ratio: 11.3
[12]
  selectivity ratio: 2
Salmonella typhimurium [13]
  MIC: 8 µM (≈ 17.2 µg/mL)
Staphylococcus aureus [14]
  MIC: > 64 µM
Escherichia coli [15]
  MIC: 4 µM (≈ 8.6 µg/mL)
[16]
  MIC: > 64 µM
[17]
  selectivity ratio: 2
[18]
  selectivity ratio: 2
[19]
  selectivity ratio: 11.3
[20]
  selectivity ratio: 2
Staphylococcus aureus [21]
  MIC: > 64 µM
[22]
  viability at 128 µM: > 90%
Erythrocyte
  MHC: > 128 µM
[23]
  hemolysis at up to 128 µM: < 5%
[24]
  selectivity ratio: 11.3
